# Biological target: human plasma kallikrein (Homo sapiens (Human), UniProt P03952)
# Assay: In vitro enzyme inhibition of human plasma kallikrein (PFR-AMC cleavage)
# Format: biochemical
# Conditions: Pro-Phe-Arg-AMC substrate, 37° C., read-out: hPK IC50
# Procedure: The ability of the compounds disclosed herein to inhibit human plasma kallikrein activity was quantified according to the procedures below.
# A 10 mM solution of the test compound was made in DMSO. […] A control tube containing only DMSO is included. 16 μL of each compound test solution was combined with 384 μL of assay buffer (50 mM Tris-HCl pH 7.5, 150 mM NaCl, 0.01% Triton X-100) to yield a “4× test compound buffer stock”.
# These solutions are hereby referred to as 4× hPK and 2×PFR-AMC, respectively.
# 50 μL was removed from this mixture and placed into duplicate wells on a Microfluor 1Black U-bottom microtiter plate (Thermo Scientific). This plate was incubated for 5 minutes at 37° C. To each well, 50 μL of pre-warmed 2×PFR-AMC was added to start the enzymatic reaction. Cleavage of PFR-AMC was monitored in a Biotek Synergy H4 reader set at 37° C. Readings are taken every 43 seconds for 1 hour. […] The IC50 is calculated using the Gen5 (Biotek Instruments).
# The ability of the compounds in Table 3 to inhibit human plasma kallikrein activity was determined.
# Sequence of human plasma kallikrein (P03952 391-638): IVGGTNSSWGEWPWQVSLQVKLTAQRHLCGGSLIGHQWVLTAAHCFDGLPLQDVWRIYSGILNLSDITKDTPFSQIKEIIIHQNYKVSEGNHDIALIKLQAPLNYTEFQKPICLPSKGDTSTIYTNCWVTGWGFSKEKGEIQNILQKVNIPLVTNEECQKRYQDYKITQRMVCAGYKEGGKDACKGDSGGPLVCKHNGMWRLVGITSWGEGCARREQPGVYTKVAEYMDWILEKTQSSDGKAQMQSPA
# Sequence of human plasma kallikrein (P03952 20-390 partner): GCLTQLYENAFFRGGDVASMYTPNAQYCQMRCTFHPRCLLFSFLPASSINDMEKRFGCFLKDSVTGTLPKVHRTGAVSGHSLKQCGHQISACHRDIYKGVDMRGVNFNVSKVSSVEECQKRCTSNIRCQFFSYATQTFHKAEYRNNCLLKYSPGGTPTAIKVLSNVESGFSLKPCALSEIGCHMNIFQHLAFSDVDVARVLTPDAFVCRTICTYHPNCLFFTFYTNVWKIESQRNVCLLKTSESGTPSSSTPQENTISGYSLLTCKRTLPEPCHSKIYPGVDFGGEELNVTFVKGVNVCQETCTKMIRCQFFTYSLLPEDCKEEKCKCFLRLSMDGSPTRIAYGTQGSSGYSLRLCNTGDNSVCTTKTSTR
row,IC50 [nM],SMILES
1,100 to 1000,"Cc1nc2c(cc1CNC(=O)c1ccnc(Cc3ccc4ncc(Cl)cc4c3)c1)CCN2 [Example 161, 2-((3-chloroquinolin-6-yl)methyl)-N-((6-methyl-2,3-dihydro-1H-pyrrolo[2,3-b]pyridin-5-yl)methyl)isonicotinamide]"
2,< 100,"Cc1nc(N)ccc1CNC(=O)c1ccnc(Cc2cc(N)c3ncc(Cl)cc3c2)c1 [Example 218, N-((6-amino-2-methylpyridin-3-yl)methyl)-2-((8-amino-3-chloroquinolin-6-yl)methyl)isonicotinamide]"
3,< 100,"Cc1cc(N)nc(C)c1CNC(=O)c1cc(C#N)nc(Cc2ccc3ncc(Cl)cc3c2)c1 [Example 207, N-((6-amino-2,4-dimethylpyridin-3-yl)methyl)-2-((3-chloroquinolin-6-yl)methyl)-6-cyanoisonicotinamide]"
4,> 10000,"O=C(NCc1ccc2ncc(Cl)cn12)c1ccnc(Cc2ccc3ncc(Cl)cc3c2)c1 [Example 206, N-((3-chloropyrrolo[1,2-a]pyrimidin-6-yl)methyl)-2-((3-chloroquinolin-6-yl)methyl)isonicotinamide]"
5,1000 to 10000,"O=C(NCc1cc2c(Cl)c[nH]c2cc1F)c1ccnc(Cc2ccc3ncc(N4CCOCC4)cc3c2)c1 [Example 292, N-((3-chloro-6-fluoro-1H-indol-5-yl)methyl)-2-((3-morpholinoquinolin-6-yl)methyl)isonicotinamide]"
6,1000 to 10000,"O=C(NCc1cnc2[nH]cc(Cl)c2c1)c1ccnc(Cc2ccc3ncc(N4CCCCC4)cc3c2)c1 [Example 306, N-((3-chloro-1H-pyrrolo[2,3-b]pyridin-5-yl)methyl)-2-((3-(piperidin-1-yl)quinolin-6-yl)methyl)isonicotinamide]"
7,> 10000,"Cc1cc2cncn2cc1CNC(=O)c1ccnc(Cc2ccc3ncc(Cl)cc3c2)c1 [Example 188, 2-((3-chloroquinolin-6-yl)methyl)-N-((7-methylimidazo[1,5-a]pyridin-6-yl)methyl)isonicotinamide]"
8,> 10000,"O=C(NCc1cnc2ncc(Cl)cn12)c1ccnc(Cc2ccc3ncc(Cl)cc3c2)c1 [Example 256, N-((6-chloroimidazo[1,2-a]pyrimidin-3-yl)methyl)-2-((3-chloroquinolin-6-yl)methyl)isonicotinamide]"
9,< 100,"Cc1cnc2c(C(C)(C)O)cc(Cc3cc(C(=O)NCc4n[nH]c5ccc(Cl)cc45)ccn3)cc2c1 [Example 317, N-((5-chloro-1H-indazol-3-yl)methyl)-2-((8-(2-hydroxypropan-2-yl)-3-methylquinolin-6-yl)methyl)isonicotinamide]"
10,100 to 1000,"Nc1cnc2ccc(Cc3cc(C(=O)NCc4ccc5[nH]cc(Cl)c5c4F)ccn3)cc2c1 [Example 301, 2-((3-aminoquinolin-6-yl)methyl)-N-((3-chloro-4-fluoro-1H-indol-5-yl)methyl)isonicotinamide]"
11,1000 to 10000,"O=C(NCc1cc2c(Cl)c[nH]c2cc1F)c1ccnc(Cc2ccc3ncc(N4CCNCC4)cc3c2)c1 [Example 313, N-((3-chloro-6-fluoro-1H-indol-5-yl)methyl)-2-((3-(piperazin-1-yl)quinolin-6-yl)methyl)isonicotinamide]"
12,< 100,"CCc1cnc2ccc(Cc3cc(C(=O)NCc4cc5c(Cl)c[nH]c5cc4F)ccn3)cc2c1 [Example 280, N-((3-chloro-6-fluoro-1H-indol-5-yl)methyl)-2-((3-ethylquinolin-6-yl)methyl)isonicotinamide]"
13,1000 to 10000,"Nc1nccc2cc(CNC(=O)c3ccnc(Cc4ccc5ncc(N6CCOCC6)cc5c4)c3)ccc12 [Example 293, N-((1-aminoisoquinolin-6-yl)methyl)-2-((3-morpholinoquinolin-6-yl)methyl)isonicotinamide]"
14,100 to 1000,"Nc1ncc2cc(CNC(=O)c3ccnc(Cc4ccc5ncc(Cl)cc5c4)c3)ccn12 [Example 187, N-((3-aminoimidazo[1,5-a]pyridin-7-yl)methyl)-2-((3-chloroquinolin-6-yl)methyl)isonicotinamide]"
15,< 100,"COc1cnc2ccc(Cc3cc(C(=O)NCc4ccc(N)nc4C)ccn3)cc2c1 [Example 265, N-(6-amino-2-methyl-pyridin-3-ylmethyl)-2-(3-methoxy-quinolin-6-ylmethyl)-isonicotinamide]"
16,100 to 1000,"O=C(NCc1n[nH]c2ccc(Cl)cc12)c1ccnc(Cc2ccc3ncc(N4CCCC4)cc3c2)c1 [Example 309, N-((5-chloro-1H-indazol-3-yl)methyl)-2-((3-(pyrrolidin-1-yl)quinolin-6-yl)methyl)isonicotinamide]"
17,< 100,"CCc1cnc2ccc(Cc3cc(C(=O)NCc4ccc5[nH]cc(Cl)c5c4F)ccn3)cc2c1 [Example 282, N-((3-chloro-4-fluoro-1H-indol-5-yl)methyl)-2-((3-ethylquinolin-6-yl)methyl)isonicotinamide]"
18,1000 to 10000,"Cc1n[nH]c2ncc(CNC(=O)c3ccnc(Cc4ccc5ncc(Cl)cc5c4)c3)cc12 [Example 266, 2-((3-chloroquinolin-6-yl)methyl)-N-((3-methyl-1H-pyrazolo[3,4-b]pyridin-5-yl)methyl)isonicotinamide]"
19,< 100,"COC(c1ccc2ncc(Cl)cc2c1)c1cc(C(=O)NCc2c(C)cc(N)nc2C)ccn1 (centres unmarked) [Example 296, N-((6-amino-2,4-dimethylpyridin-3-yl)methyl)-2-((3-chloroquinolin-6-yl)(methoxy)methyl)isonicotinamide]"
20,< 100,"Cc1nc2[nH]cc(Cl)c2cc1CNC(=O)c1ccnc(Cc2ccc3ncc(Cl)cc3c2)c1 [Example 191, N-((3-chloro-6-methyl-1H-pyrrolo[2,3-b]pyridin-5-yl)methyl)-2-((3-chloroquinolin-6-yl)methyl)isonicotinamide]"
21,1000 to 10000,"Nc1nccc2cc(CNC(=O)c3ccnc(Cc4ccc5ncc(N6CCCCC6)cc5c4)c3)ccc12 [Example 303, N-((1-aminoisoquinolin-6-yl)methyl)-2-((3-(piperidin-1-yl)quinolin-6-yl)methyl)isonicotinamide]"
22,1000 to 10000,"O=C(NCc1ccc2[nH]nc(C(F)(F)F)c2c1)c1ccnc(Cc2ccc3ncc(Cl)cc3c2)c1 [Example 267, 2-((3-chloroquinolin-6-yl)methyl)-N-((3-(trifluoromethyl)-1H-indazol-5-yl)methyl)isonicotinamide]"
23,> 10000,"Cc1ccn2c(C(F)(F)F)nc(CNC(=O)c3ccnc(Cc4ccc5ncc(Cl)cc5c4)c3)c2c1 [Example 160, 2-((3-chloroquinolin-6-yl)methyl)-N-((7-methyl-3-(trifluoromethyl)imidazo[1,5-a]pyridin-1-yl)methyl)isonicotinamide]"
24,1000 to 10000,"O=C(NCc1n[nH]c2ccc(Cl)cc12)c1ccnc(Cc2ccc3ncc(N4CCNCC4)cc3c2)c1 [Example 312, N-((5-chloro-1H-indazol-3-yl)methyl)-2-((3-(piperazin-1-yl)quinolin-6-yl)methyl)isonicotinamide]"

row,SMILES,IC50 [nM]
1,"Cc1cnc2c(C(C)(C)O)cc(Cc3cc(C(=O)NCc4cnc5[nH]cc(Cl)c5c4)ccn3)cc2c1 [Example 316, N-((3-chloro-1H-pyrrolo[2,3-b]pyridin-5-yl)methyl)-2-((8-(2-hydroxypropan-2-yl)-3-methylquinolin-6-yl)methyl)isonicotinamide]",< 100
2,"O=C(NCc1cc2c(Cl)c[nH]c2cc1F)c1ccnc(Cc2ccc3ncc(N4CCCCC4)cc3c2)c1 [Example 302, N-((3-chloro-6-fluoro-1H-indol-5-yl)methyl)-2-((3-(piperidin-1-yl)quinolin-6-yl)methyl)isonicotinamide]",1000 to 10000

# Source: patent US10023557B2 (LifeSci Pharmaceuticals, Inc., priority 2015, dated 2018)
